Experiments:
[1] = test system: CD44; experiment: IHC analysis of CD44 in M5 tumors; format: in vivo, BALB/c nude mice; settings: relative to the control group
Description: The mice were observed daily for clinical signs, weighed them every three days, and at one month after tumor-cell implantation euthanized them with an overdose of anesthetic combined with carbon dioxide. Immediately before sacrificing the mice, the blood was collected from them under anesthesia for hematological assessment. After euthanizing the mice, the tumors were excised immediately. The tumor specimens were divided into two groups. One group was treated with 10% formalin and embedded the specimens in paraffin. These specimens were investigated by hematoxylin and eosin staining; terminal deoxyribonucleotidyl transferase (TdT)-mediated biotin-16-dUTP nick-end labeling (TUNEL assay; APO-BrdU TUNEL Assay Kit, BD Pharmingen, San Diego, CA, USA); and IHC for IL-1β, TNF-α, TGF-β, and CD44, using primary antibodies against these factors (Merck, Billerica, MA, USA). Protein expression was assessed via IHC with the […] mouse/rabbit polymer detection system produced by BioTnA (Kaohsiung, Taiwan). A high-resolution digital microscope (Moticam 2300, Motic Instruments, Richmond, Canada) equipped with Motic Images Plus (version 2.0) was used to capture and analyze the images. The other groups of tumor specimens were first minced coarsely and homogenized, and then stored in a freezer at -80° C.

[2] = test system: M5 canine melanoma tumor; experiment: M5 canine melanoma tumor growth in implanted mice; format: in vivo, BALB/cByJNarl mice; settings: cisplatin 2 mg/kg; for Tumor mass: after excision from sacrificed mice, IP three times per week, PTS 100 mg/kg, mean ± SD; for Tumor mass reduction (%): relative to the control, PTS 100 mg/kg IP three times per week
Description: Male BALB/cByJNarl mice at six-weeks of age were obtained from National Laboratory Animal Breeding and Research Center, Taipei, Taiwan. Two mice were housed in each cage and provided them with sterile food and water. The mice were maintained under a constant temperature (22±2° C.) and relative humidity (55±5%), with a 12:12 h light:dark cycle. The Institutional Animal Care and Use Committee (IACUC) at the National […] University (IACUC Approval No.110003) reviewed and approved the study protocol, in which procedures were in accordance with the Guidelines for the Care and Use of Laboratory Animals published by the Taiwanese Ministry of Health and Welfare. The M5 canine melanoma cell line was obtained from the School of Veterinary Medicine at National Taiwan University. The cells were cultured in a humidified atmosphere (95% air, 5% CO2) at 37° C. in 90% high-glucose Dulbecc's Modified Eagle Medium supplemented with 5% fetal bovine serum, 50 IU/ml of penicillin, and […] of streptomycin (Gibco Laboratories, Grand Island, NY, USA). The cells were routinely passaged by removing the medium and overlaying the cell monolayer with 0.25% trypsin and 0.1% ethylenediaminetetraacetic acid. The experimental treatments were commenced after the implanted M5 cells had formed a detectable tumor mass, which was assessed on day 7 after implantation. Briefly, the mice were anesthetized via intraperitoneal injection of Zoletil (Virbac Taiwan, Taipei, Taiwan), and then subcutaneously injected 100 μl of cell suspension containing 10^7 viable M5 cells into a posterior leg. […] All treatments were administered via intraperitoneal injection. The control group received saline daily, while the three treatment groups received their corresponding treatments three times per week. The cisplatin group received 2 mg/kg cisplatin (Sigma; St. Louis, MO, USA). The PTS group was administered with 100 mg/kg PTS (Gongwin Biopharm Holding, Taipei, Taiwan). The cisplatin+PTS group received 100 mg/kg PTS and 2 mg/kg cisplatin. The dosage of cisplatin was selected such that this drug affects apoptosis, invasion, metastasis, angiogenesis, and the growth signal mechanisms in canine melanoma implanted in mice. […] The growth of the tumors was assessed every seven days by measuring their largest and smallest diameters, and calculated their volume according to the following formula: […] The mice were observed daily for clinical signs, weighed them every three days, and at one month after tumor-cell implantation euthanized them with an overdose of anesthetic combined with carbon dioxide. […] Protein expression was assessed via IHC with the […] mouse/rabbit polymer detection system produced by BioTnA (Kaohsiung, Taiwan). […]

[3] = test system: CD45; experiment: IHC analysis of CD45 in M5 tumors; format: in vivo, BALB/c nude mice; settings: IHC staining, FIGS. 11A and 11B
[4] = test system: cyclooxygenase-2 (COX-2); experiment: Western blot of COX-2 in M5 tumors; format: in vivo, BALB/c nude mice; settings: vs control group
Description: The mice were observed daily for clinical signs, weighed them every three days, and at one month after tumor-cell implantation euthanized them with an overdose of anesthetic combined with carbon dioxide. Immediately before sacrificing the mice, the blood was collected from them under anesthesia for hematological assessment. After euthanizing the mice, the tumors were excised immediately. The tumor specimens were divided into two groups. One group was treated with 10% formalin and embedded the specimens in paraffin. These specimens were investigated by hematoxylin and eosin staining; terminal deoxyribonucleotidyl transferase (TdT)-mediated biotin-16-dUTP nick-end labeling (TUNEL assay; APO-BrdU TUNEL Assay Kit, BD Pharmingen, San Diego, CA, USA); and IHC for IL-1β, TNF-α, TGF-β, and CD44, using primary antibodies against these factors (Merck, Billerica, MA, USA). Protein expression was assessed via IHC with the TAlink mouse/rabbit polymer detection system produced by BioTnA (Kaohsiung, Taiwan). […]
Western blotting on the second group of tumor specimens was performed according to standard protocol (Wu et al 2020). […] Protein expression and phosphorylation were quantified with ImageJ (National Institutes of Health, Bethesda, […], USA).

Row | Structure (SMILES) | CD44 expression reduction [1] | Tumor mass [2] [g] | Tumor mass reduction (%) [2] [%] | CD45 activity, times higher than the control group [3] [times] | Expression of cyclooxygenase-2 (COX-2) [4]
1 | N.N.[Cl][Pt][Cl] [Cisplatin, cisplatin, reference compound] | about 40.9% | 1.37 ± 0.25 | 48.7 | 1.4 | lower
2 | Cc1ccc(S(N)(=O)=O)cc1 [PTS, p-Toluenesulfonamide] | ~34.4% | 1.48 ± 0.33 | 44.2 | 1.3 | lower

From US12409158B2, “Combination therapy for treating cancer” (GONGWIN BIOPHARM CO., LTD, priority 2022, dated 2025)
